Reference: publication PMC12090182, “Repurposing of the RIPK1-Selective Benzo[1,4]oxazepin-4-one Scaffold for the Development of a Type III LIMK1/2 Inhibitor” (ACS Chemical Biology, 2025)

Test system: MRC-9 cells
Experiment: Multiplex high-content viability assessment
Format: cell-based
Conditions: human fibroblast
Procedure, shortened: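 HEK293T and U2OS cells (DMEM) and MRC-9 fibroblasts (EMEM) exposed to compounds at 1 and 10 μM. Live-cell confocal imaging of cell shape and fluorescence before and at 12, 24 and 48 h. Normalized to 0.1% DMSO; biological duplicates with SEM.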

[1] = 1 µM, 0 h after treatment, biological replicate 1
[2] = 1 µM, 0 h after treatment, biological replicate 2
[3] = 1 µM, 12 h after treatment, biological replicate 1
[4] = 1 µM, 12 h after treatment, biological replicate 2
[5] = 1 µM, 24 h after treatment, biological replicate 1
[6] = 1 µM, 24 h after treatment, biological replicate 2
[7] = 1 µM, 48 h after treatment, biological replicate 1
[8] = 1 µM, 48 h after treatment, biological replicate 2
[9] = 10 µM, 0 h after treatment, biological replicate 1
[10] = 10 µM, 0 h after treatment, biological replicate 2
[11] = 10 µM, 12 h after treatment, biological replicate 1
[12] = 10 µM, 12 h after treatment, biological replicate 2
[13] = 10 µM, 24 h after treatment, biological replicate 1
[14] = 10 µM, 24 h after treatment, biological replicate 2
[15] = 10 µM, 48 h after treatment, biological replicate 1
[16] = 10 µM, 48 h after treatment, biological replicate 2

## CC(C)C(=O)Nc1ncc(C(=O)NCCN(Cc2ccccc2)C(=O)c2ccc(S(=O)(=O)Nc3ccccc3)cc2)s1 [TH470]
[1]
  Cell count normalized to cells treated with DMSO control: 0.8608
  Cell count per well: 129
  Population Fragmented Nuclei (%): 29.31%
  Population Healthy Nuclei (%): 61.21%
  Population Pyknosed Nuclei (%): 9.48%
  Population apoptotic cell (%): 36.36%
  Population cell that influence microtubule strucutre (%): 19.72%
  Population with increased mitochondrial mass (%): 8.45%
  Population with membrane disruption (%): 1.41%
[2]
  Cell count normalized to cells treated with DMSO control: 0.9307
  Cell count per well: 166
  Population Fragmented Nuclei (%): 25.00%
  Population Healthy Nuclei (%): 44.23%
  Population Pyknosed Nuclei (%): 30.77%
  Population apoptotic cell (%): 35.42%
  Population cell that influence microtubule strucutre (%): 44.93%
  Population with increased mitochondrial mass (%): 11.59%
  Population with membrane disruption (%): 10.14%
[3]
  Cell count normalized to cells treated with DMSO control: 0.8102
  Cell count per well: 122
  Population Fragmented Nuclei (%): 23.93%
  Population Healthy Nuclei (%): 62.39%
  Population Pyknosed Nuclei (%): 13.68%
  Population apoptotic cell (%): 43.75%
  Population cell that influence microtubule strucutre (%): 27.40%
  Population with increased mitochondrial mass (%): 4.11%
  Population with membrane disruption (%): 2.74%
[4]
  Cell count normalized to cells treated with DMSO control: 0.8825
  Cell count per well: 147
  Population Fragmented Nuclei (%): 34.51%
  Population Healthy Nuclei (%): 42.25%
  Population Pyknosed Nuclei (%): 23.24%
  Population apoptotic cell (%): 36.36%
  Population cell that influence microtubule strucutre (%): 73.33%
  Population with increased mitochondrial mass (%): 13.33%
  Population with membrane disruption (%): 15.00%
[5]
  Cell count normalized to cells treated with DMSO control: 0.8356
  Cell count per well: 126
  Population Fragmented Nuclei (%): 27.27%
  Population Healthy Nuclei (%): 57.02%
  Population Pyknosed Nuclei (%): 15.70%
  Population apoptotic cell (%): 63.16%
  Population cell that influence microtubule strucutre (%): 34.78%
  Population with increased mitochondrial mass (%): 4.35%
  Population with membrane disruption (%): 1.45%
[6]
  Cell count normalized to cells treated with DMSO control: 0.9099
  Cell count per well: 150
  Population Fragmented Nuclei (%): 42.18%
  Population Healthy Nuclei (%): 40.82%
  Population Pyknosed Nuclei (%): 17.01%
  Population apoptotic cell (%): 56.00%
  Population cell that influence microtubule strucutre (%): 61.67%
  Population with increased mitochondrial mass (%): 10.00%
  Population with membrane disruption (%): 18.33%
[7]
  Cell count normalized to cells treated with DMSO control: 0.8239
  Cell count per well: 125
  Population Fragmented Nuclei (%): 33.87%
  Population Healthy Nuclei (%): 54.03%
  Population Pyknosed Nuclei (%): 12.10%
  Population apoptotic cell (%): 60.00%
  Population cell that influence microtubule strucutre (%): 41.79%
  Population with increased mitochondrial mass (%): 4.48%
  Population with membrane disruption (%): 1.49%
[8]
  Cell count normalized to cells treated with DMSO control: 0.9026
  Cell count per well: 147
  Population Fragmented Nuclei (%): 48.98%
  Population Healthy Nuclei (%): 42.18%
  Population Pyknosed Nuclei (%): 8.84%
  Population apoptotic cell (%): 69.23%
  Population cell that influence microtubule strucutre (%): 61.29%
  Population with increased mitochondrial mass (%): 16.13%
  Population with membrane disruption (%): 9.68%
[9]
  Cell count normalized to cells treated with DMSO control: 1.121
  Cell count per well: 168
  Population Fragmented Nuclei (%): 21.21%
  Population Healthy Nuclei (%): 57.58%
  Population Pyknosed Nuclei (%): 21.21%
  Population apoptotic cell (%): 25.71%
  Population cell that influence microtubule strucutre (%): 17.89%
  Population with increased mitochondrial mass (%): 6.32%
  Population with membrane disruption (%): 1.05%
[10]
  Cell count normalized to cells treated with DMSO control: 0.8074
  Cell count per well: 144
  Population Fragmented Nuclei (%): 27.54%
  Population Healthy Nuclei (%): 50.00%
  Population Pyknosed Nuclei (%): 22.46%
  Population apoptotic cell (%): 38.71%
  Population cell that influence microtubule strucutre (%): 49.28%
  Population with increased mitochondrial mass (%): 15.94%
  Population with membrane disruption (%): 2.90%
[11]
  Cell count normalized to cells treated with DMSO control: 1.202
  Cell count per well: 181
  Population Fragmented Nuclei (%): 19.88%
  Population Healthy Nuclei (%): 54.97%
  Population Pyknosed Nuclei (%): 25.15%
  Population apoptotic cell (%): 39.53%
  Population cell that influence microtubule strucutre (%): 77.66%
  Population with increased mitochondrial mass (%): 9.57%
  Population with membrane disruption (%): 3.19%
[12]
  Cell count normalized to cells treated with DMSO control: 0.9125
  Cell count per well: 152
  Population Fragmented Nuclei (%): 31.25%
  Population Healthy Nuclei (%): 34.03%
  Population Pyknosed Nuclei (%): 34.72%
  Population apoptotic cell (%): 54.00%
  Population cell that influence microtubule strucutre (%): 91.84%
  Population with increased mitochondrial mass (%): 14.29%
  Population with membrane disruption (%): 18.37%
[13]
  Cell count normalized to cells treated with DMSO control: 1.167
  Cell count per well: 176
  Population Fragmented Nuclei (%): 24.85%
  Population Healthy Nuclei (%): 52.66%
  Population Pyknosed Nuclei (%): 22.49%
  Population apoptotic cell (%): 57.89%
  Population cell that influence microtubule strucutre (%): 78.65%
  Population with increased mitochondrial mass (%): 19.10%
  Population with membrane disruption (%): 1.12%
[14]
  Cell count normalized to cells treated with DMSO control: 0.825
  Cell count per well: 136
  Population Fragmented Nuclei (%): 34.62%
  Population Healthy Nuclei (%): 32.31%
  Population Pyknosed Nuclei (%): 33.08%
  Population apoptotic cell (%): 44.19%
  Population cell that influence microtubule strucutre (%): 88.10%
  Population with increased mitochondrial mass (%): 19.05%
  Population with membrane disruption (%): 16.67%
[15]
  Cell count normalized to cells treated with DMSO control: 1.081
  Cell count per well: 164
  Population Fragmented Nuclei (%): 23.18%
  Population Healthy Nuclei (%): 54.97%
  Population Pyknosed Nuclei (%): 21.85%
  Population apoptotic cell (%): 48.48%
  Population cell that influence microtubule strucutre (%): 89.16%
  Population with increased mitochondrial mass (%): 22.89%
  Population with membrane disruption (%): 0.00%
[16]
  Cell count normalized to cells treated with DMSO control: 0.7798
  Cell count per well: 127
  Population Fragmented Nuclei (%): 44.35%
  Population Healthy Nuclei (%): 37.90%
  Population Pyknosed Nuclei (%): 17.74%
  Population apoptotic cell (%): 63.64%
  Population cell that influence microtubule strucutre (%): 89.36%
  Population with increased mitochondrial mass (%): 17.02%
  Population with membrane disruption (%): 17.02%
